Drawing on patent US9073935B2, “Substituted benzylspiroindolin-2-one analogs as positive allosteric modulators of the muscarinic acetylcholine receptor M1” (VANDERBILT UNIVERSITY, priority 2011, dated 2015), this text covers Emax and EC50 for 34 compounds.

The test addresses T1, mAChR M1 (UniProt P11229).
T1 sequence (P11229 1-460): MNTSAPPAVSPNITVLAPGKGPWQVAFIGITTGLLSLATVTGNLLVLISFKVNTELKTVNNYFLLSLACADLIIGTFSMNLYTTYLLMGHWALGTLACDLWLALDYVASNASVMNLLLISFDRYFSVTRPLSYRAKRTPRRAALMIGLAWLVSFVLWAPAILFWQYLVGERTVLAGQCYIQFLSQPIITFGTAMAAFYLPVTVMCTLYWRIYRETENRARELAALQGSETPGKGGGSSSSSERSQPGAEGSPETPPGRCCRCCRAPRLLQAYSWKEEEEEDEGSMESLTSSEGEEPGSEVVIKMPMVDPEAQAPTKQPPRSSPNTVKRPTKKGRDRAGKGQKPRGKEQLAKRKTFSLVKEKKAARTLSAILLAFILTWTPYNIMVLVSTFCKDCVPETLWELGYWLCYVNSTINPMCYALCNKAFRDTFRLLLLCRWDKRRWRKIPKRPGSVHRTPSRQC
In words: mAChR M1 cell-based functional assay (calcium mobilization, potentiation of EC20 acetylcholine response). Particulars: for Emax: % ACh maximum at 30 μM; for EC50: CHO-K1 cells expressing mAChR M1, increase in EC20 acetylcholine response, >10 μM estimated where no plateau in the curve. As for the experimental part: Chinese hamster ovary (CHO-K1) cells stably expressing rat (r)M1 were purchased from the American Type Culture Collection and cultured according to their indicated protocol. […] To make stable rM2, hM2, rM3, hM4, and rM4 cell lines for use in calcium mobilization assays, these cells also were stably transfected with a chimeric G-protein (Gqi5) (provided by B. R. Conklin, University of California, San Francisco) using Lipofectamine 2000. rM1, hM1, rM3, hM3, rM5, and hM5 cells were grown in Ham's F-12 medium containing 10% heat-inactivated fetal bovine serum (FBS), 20 mM HEPES, and 50 μg/mL G418 sulfate. rM2-Gqi5, hM2-Gqi5, and hM4-Gqi5 cells were grown in the same medium also containing 500 μg/mL Hygromycin B. Stable rM4-Gqi5 cells were grown in DMEM containing 10% heat-inactivated FBS, 20 mM HEPES, 400 μg/mL G418 sulfate, and 500 μg/mL Hygromycin B.
For high throughput measurement of agonist-evoked increases in intracellular calcium, CHO-K1 cells stably expressing muscarinic receptors were plated in growth medium lacking G418 and hygromycin at 15,000 cells/20 μL/well in Greiner 384-well black-walled, tissue culture (TC)-treated, clear-bottom plates (VWR). Cells were incubated overnight at 37° C. and 5% CO2. […] Compound master plates were formatted in an 11 point CRC format (1:3 dilutions) in 100% DMSO with a starting concentration of 10 mM using the BRAVO liquid handler (Agilent). Test compound CRCs were then transferred to daughter plates ([…]) using the Echo acoustic plate reformatter (Labcyte, Sunnyvale, Calif.) and then diluted into assay buffer (40 μL) to a 2× stock using a Thermo Fisher Combi (Thermo Fisher Scientific, Waltham, Mass.).
Calcium flux was measured using the Functional Drug Screening System (FDSS) 6000 (Hamamatsu Corporation, Tokyo, Japan) as an increase in the fluorescent static ratio. Compounds were applied to cells (20 μL, 2×) using the automated system of the FDSS 6000 at 4 s into the 300 s protocol and the data were collected at 1 Hz. […] Agonist activity was analyzed as a concentration-dependent increase in calcium mobilization upon compound addition. Positive allosteric modulator activity was analyzed as a concentration-dependent increase in the EC20 acetylcholine response. Antagonist activity was analyzed as a concentration-dependent decrease in the EC80 acetylcholine response. Concentration-response curves were generated using a four-parameter logistical equation in XLfit curve fitting software (IDBS, Bridgewater, N.J.) for Excel (Microsoft, Redmond, Wash.) or Prism (GraphPad Software, Inc., San Diego, Calif.).
The calcium mobilization assay was also used to determine “efficacy”. In the context of the assays carried out for the data in Table II, “efficacy” (% ACh at 30 μM) is defined as the maximal response in the calcium flux as determined by the sigmoidal curve fit of the concentration response curve, or in the absence of an acceptable curve fit, the response recorded at 30 μM test compound, stated as a percentage of the response elicited by a concentration of Ach that induces approximately 80% of a maximal (i.e. saturating) ACh response.
Substituted benzylspiroindolin-2-one analogs were synthesized as described above. Activity (EC50 and Emax) was determined in the mAChR M1 cell-based functional assay as described above and the data are shown in Table III. The compound number corresponds to the compound numbers used in Tables I and II.

The Emax is the size of the effect at its maximum, as opposed to the concentration needed. Usually EC50 stands for the midpoint of the concentration-response curve. As for `CN1CCC(N2CCC3(CC2)C(=O)N(Cc2ccc(-c4cnn(C)c4)cc2F)c2ccccc23)C1` (centres unmarked) [Compound B39], the Emax is 55% and the EC50 is 4.7 µM.
For `Cn1cc(-c2ccc(CN3C(=O)C4(CCN(CC5CCCCC5)C4)c4ccccc43)c(F)c2)cn1` (centres unmarked) [Compound B61], in that order: 36% and more than 10 µM.
`Cn1cc(-c2ccc(CN3C(=O)C4(CCN(C5CCOC5)CC4)c4ccccc43)c(F)c2)cn1` (centres unmarked) [Compound B71]: the Emax is on record as 36% and the EC50 was more than 10 µM.
For `CC(C)N1CCC(N2CCC3(C2)C(=O)N(Cc2ccc(-c4cnn(C)c4)cc2F)c2ccccc23)CC1` (centres unmarked) [Compound B44], in that order: 49% and 5 µM.
Taken in the same sequence, the figures for `Cn1cc(-c2ccc(CN3C(=O)C4(CCN(C5COC5)C4)c4ccccc43)c(F)c2)cn1` (centres unmarked) [Compound B28] were 57% and 3.7 µM.
For `Cn1cc(-c2ccc(CN3C(=O)C4(CCN(C5CCSC5)CC4)c4ccccc43)c(F)c2)cn1` (centres unmarked) [Compound B42], in that order: 51% and 4.9 µM.
Turning to `Cn1cc(-c2ccc(CN3C(=O)C4(CCN(C5CCCC5)C4)c4ccccc43)cc2F)cn1` (centres unmarked) [Compound B8], the Emax stood at 36% and the EC50 is 2 µM.
For `Cn1cc(-c2ccc(CN3C(=O)C4(CCN(C5CCOC5)C4)c4ccccc43)c(F)c2)cn1` (centres unmarked) [Compound B25], in that order: 54% and 3.3 µM.
Taken in the same sequence, the figures for `Cn1cc2c(-c3cc(F)c(CN4C(=O)C5(CCNC5)c5ccccc54)c(F)c3)cccc2n1` (centres unmarked) [Compound B74] were 69% and 7.2 µM.
Taken in the same sequence, the figures for `Cn1cc(-c2ccc(CN3C(=O)C4(CCN(C5CCCCC5)C4)c4ccccc43)c(F)c2)cn1` (single isomer, unassigned) [Compound B2] were 73% and 1.5 µM.
As to `Cn1cc(-c2ccc(CN3C(=O)C4(CCN(C5CCCC5)C4)c4ccccc43)c(F)c2F)cn1` (centres unmarked) [Compound B12], the Emax was found to be 52% and the EC50 is 2.4 µM.
In the case of `Cn1cc(-c2ccc(CN3C(=O)C4(CCN(Cc5ccccc5)C4)c4ccccc43)c(F)c2)cn1` (centres unmarked) [Compound B57], the Emax came out at 36% and the EC50 was more than 10 µM.
For `Cc1nn(C)cc1-c1ccc(CN2C(=O)C3(CCN(C4CCCC4)C3)c3ccccc32)c(F)c1` (centres unmarked) [Compound B30], in that order: 51% and 3.7 µM.
For `Cn1cc(-c2ccc(CN3C(=O)C4(CCN(C5CNC5)C4)c4ccccc43)c(F)c2)cn1` (centres unmarked) [Compound B50], in that order: 58% and 6 µM.
For `Cn1cc(-c2ccc(CN3C(=O)C4(CCN(C5CCSCC5)CC4)c4ccccc43)c(F)c2)cn1` [Compound B40], in that order: 38% and 4.7 µM.
For `CN1CCC2(C1)C(=O)N(Cc1ccc(-c3cnn(C)c3)cc1F)c1ccccc12` (single isomer, unassigned) [Compound B16, 1-(2-fluoro-4-(1-methyl-1H-pyrazol-4-yl)benzyl)-1′-methylspiro[indoline-3,3′-pyrrolidin]-2-one], the Emax is 46% and the EC50 is 2.7 µM.
Taken in the same sequence, the figures for `CC1CCCCC1N1CCC2(C1)C(=O)N(Cc1ccc(-c3cnn(C)c3)cc1F)c1ccccc12` (centres unmarked) [Compound B60] were 39% and more than 10 µM.
Taken in the same sequence, the figures for `CC(=O)N1CCC2(C1)C(=O)N(Cc1ccc(-c3cnn(C)c3)cc1F)c1ccccc12` (centres unmarked) [Compound B63, 1′-acetyl-1-(2-fluoro-4-(1-methyl-1H-pyrazol-4-yl)benzyl)spiro[indoline-3,3′-pyrrolidin]-2-one] were 54% and more than 10 µM.
For `CN1CCCC(N2CCC3(CC2)C(=O)N(Cc2ccc(-c4cnn(C)c4)cc2F)c2ccccc23)C1` (centres unmarked) [Compound B53], in that order: 57% and 6.7 µM.
As to `Cn1cc(-c2ccc(CN3C(=O)C4(CCN(C5CCCC5)C4)c4ccccc43)c(F)c2)cn1` (centres unmarked) [Compound B3, 1′-cyclopentyl-1-(2-fluoro-4-(1-methyl-1H-pyrazol-4-yl)benzyl)spiro[indoline-3,3′-pyrrolidin]-2-one], the Emax is 61% and the EC50 is 1.6 µM.
Taken in the same sequence, the figures for `Cn1cc(-c2ccc(CN3C(=O)C4(CCN(C(=O)C5CCCCC5)C4)c4ccccc43)c(F)c2)cn1` (centres unmarked) [Compound B62] were 54% and more than 10 µM.
For `Cn1cc(-c2ccc(CN3C(=O)C4(CCN(C5CCCNC5)CC4)c4ccccc43)c(F)c2)cn1` (centres unmarked) [Compound B43], in that order: 48% and 5 µM.
For `CN1CCC(N2CCC3(CC2)C(=O)N(Cc2ccc(-c4cnn(C)c4)cc2F)c2ccccc23)CC1` [Compound B48], in that order: 51% and 5.9 µM.
On to `Cn1cc(-c2ccc(CN3C(=O)C4(CCN(C5CCOCC5)CC4)c4ccccc43)c(F)c2)cn1` [Compound B69], for which the Emax was 41% and the EC50 was more than 10 µM.
Taken in the same sequence, the figures for `Cn1cc(-c2ccc(CN3C(=O)C4(CCN(C5CCCC5)CC4)c4ccccc43)c(F)c2)cn1` [Compound B46] were 34% and 5.5 µM.
Taken in the same sequence, the figures for `CC(C)N1CCC2(C1)C(=O)N(Cc1ccc(-c3cnn(C)c3)cc1F)c1ccccc12` (centres unmarked) [Compound B37] were 32% and 4.4 µM.
With `Cn1cc(-c2ccc(CN3C(=O)C4(CCN(C5CCSCC5)C4)c4ccccc43)c(F)c2)cn1` (centres unmarked) [Compound B15], the Emax was determined as 58% and the EC50 was 2.7 µM.
Taken in the same sequence, the figures for `CC1CCC(N2CCC3(C2)C(=O)N(Cc2ccc(-c4cnn(C)c4)cc2F)c2ccccc23)CC1` (centres unmarked) [Compound B52] were 46% and 6.7 µM.
Turning to `CN1CCC2(CC1)C(=O)N(Cc1ccc(-c3cnn(C)c3)cc1F)c1ccccc12` [Compound B36], the Emax was 48% and the EC50 is 4 µM.
Taken in the same sequence, the figures for `CN1CCC2(CC1)C(=O)N(Cc1c(F)cc(-c3cccc4nn(C)cc34)cc1F)c1ccccc12` [Compound B79] were less than 30% and more than 10 µM.
Taken in the same sequence, the figures for `Cn1cc(-c2ccc(CN3C(=O)C4(CCN(C5CCC5)CC4)c4ccccc43)c(F)c2)cn1` [Compound B66] were 32% and more than 10 µM.
Taken in the same sequence, the figures for `Cn1cc(-c2ccc(CN3C(=O)C4(CCN(S(C)(=O)=O)C4)c4ccccc43)c(F)c2)cn1` (centres unmarked) [Compound B65, 1-(2-fluoro-4-(1-methyl-1H-pyrazol-4-yl)benzyl)-1′-(methylsulfonyl)spiro[indoline-3,3′-pyrrolidin]-2-one] were 35% and more than 10 µM.
As to `Cn1cc(-c2ccc(CN3C(=O)C4(CCN(C5CCNC5)CC4)c4ccccc43)c(F)c2)cn1` (centres unmarked) [Compound B33], the maximum response (Emax) worked out at 52% and the half-maximal effective concentration (EC50) is 3.9 µM.
Taken in the same sequence, the figures for `CC(C)CN1CCC2(C1)C(=O)N(Cc1ccc(-c3cnn(C)c3)cc1F)c1ccccc12` (centres unmarked) [Compound B49] were 69% and 6 µM.
